The results in this text go back to patent US20260217687A1 (NeoPhore Limited, priority 2023, published 2026).

The target in the assay is T1, recombinant N-terminal MLH1 (residues 15-340) (Homo sapiens, UniProt P40692).
T1 construct: recombinant N-terminal MLH1 (residues 15-340)
T1 sequence (P40692 15-340): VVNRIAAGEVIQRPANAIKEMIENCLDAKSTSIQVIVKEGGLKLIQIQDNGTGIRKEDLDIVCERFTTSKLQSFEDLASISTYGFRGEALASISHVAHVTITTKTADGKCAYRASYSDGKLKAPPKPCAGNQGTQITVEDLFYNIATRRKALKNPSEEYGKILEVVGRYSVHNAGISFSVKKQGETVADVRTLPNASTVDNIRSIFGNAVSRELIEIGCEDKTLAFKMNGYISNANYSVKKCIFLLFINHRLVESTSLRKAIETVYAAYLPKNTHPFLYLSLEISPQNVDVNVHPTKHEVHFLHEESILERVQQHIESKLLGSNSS
Kind of assay: Fluorescence Polarisation Assay for MLH1. The assay is classed as binding. To be noted: 100 nM N-terminal MLH1, 5 nM probe compound. As to the method: Fluorescence Polarisation Assay for MLH1
Test compounds, as 10 mM DMSO stocks, were dispensed into a 384-well Low Flange Black Flat Bottom Polystyrene Non-binding Surface plate (Corning®, item number 3575) using a Labcyte Echo acoustic liquid handler. […] 20 μL of a 2× solution (200 nM) of recombinant N-terminal MLH1 (residues 15-340) in assay buffer (25 mM HEPES, pH 7.5, 250 mM NaCl, 10 mM MgCl2, 0.01% Triton X-100, 5 mM Dithiothreitol) was added to all wells in columns 1-23 and 20 μL assay buffer was added to all wells in column 24 using an E1-ClipTip pipette (ThermoFisher). Plates were centrifuged for 1 minute at 250 xg and were incubated at room temperature for 30 minutes prior to the addition of 20 μL of 2×(10 nM) of 5-((5-(4-((2-(2-(Benzyloxy)-4,6-dihydroxybenzoyl)isoindolin-5-yl)methyl)piperazin-1-yl)pentyl)carbamoyl)-2-(6-(dimethylamino)-3-(dimethyliminio)-3H-xanthen-9-yl)benzoate (referred to hereinafter as “probe compound”) in assay buffer (prepared from a 1 mM DMSO stock) with an E1-ClipTip pipette (ThermoFisher). The final concentration of N-terminal MLH1 was 100 nM and the final concentration of the probe compound was 5 nM. Compound plates were centrifuged for 1 minute at 250 xg for 1 minute and immediately read on a PheraStar FSX (fitted with 384-well aperture spoon and 590 675 675 FP optic module). The gain and focus were adjusted before each plate was read so that the polarisation of a no enzyme control (column 24) was equal to 35 mP. Data were normalised against the no inhibitor controls (column 23) and no enzyme controls (column 24).
A general note: Polarisation of emitted light reports the rotation of a fluorescent probe.

Each structure is given as a SMILES string.

`CN1C[C@H](Nc2cccc3c2CN(C(=O)c2c(O)cc(C#N)cc2OCc2ccccc2)C3)CC1=O` (single isomer, unassigned) [Example 10.7, (R)-3-(Benzyloxy)-5-hydroxy-4-(4-((1-methyl-5-oxopyrrolidin-3-yl)amino)isoindoline-2-carbonyl)benzonitrile or (S)-3-(benzyloxy)-5-hydroxy-4-(4-((1-methyl-5-oxopyrrolidin-3-yl)amino)isoindoline-2-carbonyl)benzonitrile]: the IC50 (commonly the concentration that inhibits the measured activity by half) fell in the range of 0.1 to 1 µM. As for `CN1C[C@H](Nc2cccc3c2CN(C(=O)c2c(O)cc(C#N)cc2OCc2ccccc2)C3)CC1=O` (single isomer, unassigned) [Example 10.8, (R)-3-(Benzyloxy)-5-hydroxy-4-(4-((1-methyl-5-oxopyrrolidin-3-yl)amino)isoindoline-2-carbonyl)benzonitrile or (S)-3-(benzyloxy)-5-hydroxy-4-(4-((1-methyl-5-oxopyrrolidin-3-yl)amino)isoindoline-2-carbonyl)benzonitrile], the IC50 was 0.1 to 1 µM. With `O=C(c1c(O)cc(C(F)F)cc1OCc1ccccc1)N1CCc2ccc(NC3CCOC3)cc21` (single isomer, unassigned) [Example 27.2a, (S)-(2-(Benzyloxy)-4-(difluoromethyl)-6-hydroxyphenyl)(6-((tetrahydrofuran-3-yl)amino)indolin-1-yl)methanone or (R)-(2-(Benzyloxy)-4-(difluoromethyl)-6-hydroxyphenyl)(6-((tetrahydrofuran-3-yl)amino)indolin-1-yl)methanone] the figure was 0.1 to 1 µM. Next, `O=C(c1c(O)cc(C(F)F)cc1OCc1ccccc1)N1CCc2ccc(N[C@H]3CCOC3)cc21` (single isomer, unassigned) [Example 27.2b, (S)-(2-(Benzyloxy)-4-(difluoromethyl)-6-hydroxyphenyl)(6-((tetrahydrofuran-3-yl)amino)indolin-1-yl)methanone or (R)-(2-(benzyloxy)-4-(difluoromethyl)-6-hydroxyphenyl)(6-((tetrahydrofuran-3-yl)amino)indolin-1-yl)methanone]: 0.1 to 1 µM; `O=C(c1c(O)cc(C(F)F)cc1OCc1ccccc1)N1CCc2cc(NC3CCOC3)ccc21` (single isomer, unassigned) [Example 27.5a, (S)-(2-(Benzyloxy)-4-(difluoromethyl)-6-hydroxyphenyl)(5-((tetrahydrofuran-3-yl)amino)indolin-1-yl)methanone or (R)-(2-(Benzyloxy)-4-(difluoromethyl)-6-hydroxyphenyl)(5-((tetrahydrofuran-3-yl)amino)indolin-1-yl)methanone]: 0.1 to 1 µM; `O=C(c1c(O)cc(C(F)F)cc1OCc1ccccc1)N1CCc2cc(NC3CCOC3)ccc21` (single isomer, unassigned) [Example 27.5b, (S)-(2-(Benzyloxy)-4-(difluoromethyl)-6-hydroxyphenyl)(5-((tetrahydrofuran-3-yl)amino)indolin-1-yl)methanone or (R)-(2-(Benzyloxy)-4-(difluoromethyl)-6-hydroxyphenyl)(5-((tetrahydrofuran-3-yl)amino)indolin-1-yl)methanone]: 0.1 to 1 µM. As to `COc1cc(O)c(C(=O)N2Cc3cccc(N[C@H]4CCOC4)c3C2)c(OCc2ccccc2)c1` [Example 1, (S)-(2-(Benzyloxy)-6-hydroxy-4-methoxyphenyl)(4-((tetrahydrofuran-3-yl)amino)isoindolin-2-yl)methanone], the IC50 is 0.1 to 1 µM. Next, `COc1cc(O)c(C(=O)N2Cc3cccc(N[C@@H]4CCOC4)c3C2)c(OCc2ccccc2)c1` [Example 2, (R)-(2-(Benzyloxy)-6-hydroxy-4-methoxyphenyl)(4-((tetrahydrofuran-3-yl)amino)isoindolin-2-yl)methanone]: 0.1 to 1 µM. For `O=C(c1c(O)cc(C(F)F)cc1OCc1ccccc1)N1Cc2cccc(N[C@@H]3CCOC3)c2C1` [Example 3, (R)-(2-(Benzyloxy)-4-(difluoromethyl)-6-hydroxyphenyl)(4-((tetrahydrofuran-3-yl)amino)isoindolin-2-yl)methanone], the IC50 is 0.1 to 1 µM.

Turning to `O=C(c1c(O)cc(C(F)F)cc1OCc1ccccc1)N1Cc2cccc(N[C@H]3CCOC3)c2C1` [Example 4, (S)-(2-(Benzyloxy)-4-(difluoromethyl)-6-hydroxyphenyl)(4-((tetrahydrofuran-3-yl)amino)isoindolin-2-yl)methanone], the IC50 was 0.1 to 1 µM. With `COc1cccc(COc2cc(C(F)F)cc(O)c2C(=O)N2Cc3cccc(N[C@H]4CCOC4)c3C2)c1` [Example 4.1, (S)-(4-(Difluoromethyl)-2-hydroxy-6-((3-methoxybenzyl)oxy)phenyl)(4-((tetrahydrofuran-3-yl)amino)isoindolin-2-yl)methanone] the figure was 0.1 to 1 µM; with `CN(C)Cc1cc2c(c(N[C@H]3CCOC3)c1)CN(C(=O)c1c(O)cc(C(F)F)cc1OCc1ccccc1)C2` [Example 4.2, (S)-(2-(Benzyloxy)-4-(difluoromethyl)-6-hydroxyphenyl)(6-((dimethylamino)methyl)-4-((tetrahydrofuran-3-yl)amino)isoindolin-2-yl)methanone], 0.1 to 1 µM. For `CC(=O)N1CC(Nc2cccc3c2CN(C(=O)c2c(O)cc(C(F)F)cc2OCc2ccccc2)C3)C1` [Example 4.3, 1-(3-((2-(2-(Benzyloxy)-4-(difluoromethyl)-6-hydroxybenzoyl)isoindolin-4-yl)amino)azetidin-1-yl)ethan-1-one], the IC50 is 0.1 to 1 µM. Next, `O=C(c1c(O)cc(C(F)F)cc1OCc1ccccc1)N1Cc2cccc(NC3COC3)c2C1` [Example 4.4, (2-(Benzyloxy)-4-(difluoromethyl)-6-hydroxyphenyl)(4-(oxetan-3-ylamino)isoindolin-2-yl)methanone]: 0.1 to 1 µM; `O=C(c1c(O)cc(C(F)F)cc1OCc1ccccn1)N1Cc2cccc(NC3COC3)c2C1` [Example 4.5, (4-(Difluoro methyl)-2-hydroxy-6-(pyridin-2-ylmethoxy)phenyl) (4-(oxetan-3-ylamino)isoindolin-2-yl) methanone]: 0.1 to 1 µM.

For the compound `O=C(c1c(O)cc(C(F)F)cc1OCc1ccccc1)N1CCc2cccc(N[C@H]3CCOC3)c2C1` [Example 4.6, (S)-(2-(Benzyloxy)-4-(difluoromethyl)-6-hydroxyphenyl)(8-((tetrahydrofuran-3-yl)amino)-3,4-dihydroisoquinolin-2(1H)-yl)methanone], the IC50 was in the range of 0.1 to 1 µM. As to `O=C(c1c(O)cc(C(F)F)cc1OCc1ccccc1)N1CCc2cccc(NC3COC3)c2C1` [Example 4.7, (2-(Benzyloxy)-4-(difluoromethyl)-6-hydroxyphenyl)(8-(oxetan-3-ylamino)-3,4-dihydroisoquinolin-2(1H)-yl) methanone], the IC50 lay in the range of 0.1 to 1 µM. `COc1ccc(COc2cc(C(F)F)cc(O)c2C(=O)N2Cc3cccc(N[C@H]4CCOC4)c3C2)cc1` [Example 4.8, (S)-(4-(Difluoromethyl)-2-hydroxy-6-((4-methoxybenzyl)oxy)phenyl)(4-((tetrahydrofuran-3-yl)amino)isoindolin-2-yl)methanone]: the IC50 lay in the range of 0.1 to 1 µM. Next, `O=C(c1c(O)cc(C(F)F)cc1OCc1ccccn1)N1Cc2cccc(N[C@H]3CCOC3)c2C1` [Example 4.9, (S)-(4-(Difluoromethyl)-2-hydroxy-6-(pyridin-2-ylmethoxy)phenyl) (4-((tetrahydrofuran-3-yl)amino)isoindolin-2-yl) methanone]: 0.1 to 1 µM; `O=C(c1c(O)cc(C(F)F)cc1OCc1ccccn1)N1CCc2cccc(N[C@H]3CCOC3)c2C1` [Example 4.10, (S)-(4-(Difluoromethyl)-2-hydroxy-6-(pyridin-2-ylmethoxy)phenyl)(8-((tetrahydrofuran-3-yl)amino)-3,4-dihydroisoquinolin-2(1H)-yl)methanone]: 0.1 to 1 µM; `COc1ccc(COc2cc(C(F)F)cc(O)c2C(=O)N2CCc3cccc(N[C@H]4CCOC4)c3C2)cc1` [Example 4.11, (S)-(4-(Difluoromethyl)-2-hydroxy-6-((4-methoxybenzyl)oxy)phenyl)(8-((tetrahydrofuran-3-yl)amino)-3,4-dihydroisoquinolin-2(1H)-yl)methanone]: 0.1 to 1 µM. Consider `CN1CC[C@H](Nc2cccc3c2CN(C(=O)c2c(O)cc(C(F)F)cc2OCc2ccccc2)C3)C1=O` [Example 4.12, (S)-3-((2-(2-(Benzyloxy)-4-(difluoromethyl)-6-hydroxybenzoyl)isoindolin-4-yl)amino)-1-methylpyrrolidin-2-one], for which the IC50 was in the range of 0.1 to 1 µM.
